Test results published in US20210353648A1, “GRAPIPRANT UNIT DOSAGE FORMS” (Arrys Therapeutics, Inc., priority 2018, published 2021).
Like-named read-outs stand apart in the source and are kept apart here.

Key:
osteocalcin = assay: Multiple ascending dose study: bone marker, percent change from baseline; type: in vivo, human
From the text: Each bone marker (serum bone-specific alkaline phosphatase and osteocalcin, urinary N-terminal telopeptide of type I collagen) is expressed as percentage change from baseline and analyzed. To assess influence of potential outliers on the bone marker data analyses, the following analysis can be conducted first. Potential outliers are identified as outside an interval consistent with a normal distribution defined as (median±3.5 standard deviations [SD]) for each dosing regimen and day combination. The SD is a pooled estimate across all dosing regimen and day combinations, each estimated by the scaled inter-quartile range 0.75 (Q75-Q25). Explicitly, for each dosing regimen and day combination, its SD denoted by SDi is estimated by its scaled inter-quartile range 0.75 (Q75-Q25). The overall SD is estimated as
Then, the (percent change from baseline) values are analyzed with a mixed effect model, with treatment (dosing regimen), day, and treatment-by-day interaction effects considered fixed and subject considered random. Baseline value is not included as a covariate. The model is fit separately to each group of cohorts (Cohorts 1-3 and 5). For Cohorts 1-3, days of interest are day 7 and day 14. For Cohort 5, days of interest are day 10 and day 17. For each group of cohorts, compound symmetry is assumed, and Restricted Maximum Likelihood Estimates are used. The least squares means (LSMeans) and 95% confidence intervals (CI) are obtained for each treatment and day combination. Within each treatment, LSMean percent changes from baseline at each post-dosing day (i.e., day 7 and day 14 for Cohorts 1-3, and day 10 and day 17 for Cohort 5) are obtained, along with their 95% CIs. In addition, for each post-dosing day, differences of the LSMean percent changes from baseline between active dosed regimen and placebo are obtained. The p-values comparing these differences from placebo are obtained using t-tests. No adjustments are made for multiple comparisons. […] If outliers are identified, additional mixed model analyses using the same mixed effect modeling as detailed above are to be conducted excluding the outliers. […] Individual percent-change-from-baseline profile versus time plots are plotted by treatment regimen.

[1] = Phase 1 single ascending dose study of grapiprant OPC: pharmacokinetics; type: in vivo, human; settings: for AUC(0-t) / Cmax / AUC(0-inf) / Tmax / half-life: human, oral, serum
Description: Eligible subjects were to be enrolled into 8 sequential cohorts, corresponding to the planned dose levels of 1 mg, 3 mg, 10 mg, 30 mg, 100 mg, 300 mg, 600 mg, and 1000 mg. […] After determining a maximum tolerated dose (MTD), or after completing the highest dose cohort if a MTD was not determined, Cohort 11 would be enrolled to increase the number of subjects evaluated at the MTD (or the highest dose).
In each dosing period, subjects were confined to the Clinical Research Unit (CRU) for approximately 60 hours (from approximately 36 hours predose through 24 hours postdose), and were instructed to return to the study site at 48 hours postdose for collection of blood samples for safety and pharmacokinetic evaluations. Subjects had triplicate ECG measurements made at select time-points on Day 0 (to provide a time-matched baseline) and through 24 hours postdose. Continuous cardiac monitoring by telemetry was performed for 12 hours postdose (or up to 24 hours, if warranted, based on the pharmacokinetic data). Creatine phosphokinase (CPK; total CPK and CPK-MB isoenzyme) and troponin I levels were monitored predose and at 12 and 24 hours postdose. In each dosing period, blood samples were collected predose and at 0.5, 1, 1.5, 2, 2.5, 3, 4, 6, 8, 12, 16, 24, and 48 hours postdose for pharmacokinetic evaluation. Fecal occult blood was monitored predose and through 48 hours postdose. Urine was collected through 24 hours postdose for exploratory biotransformation analyses. Since grapiprant may be a substrate of efflux transporters, genotyping for P-gp, an efflux transporter, was also planned for this study.
Pharmacokinetics: The maximum observed serum concentration (Cmax) of grapiprant was estimated directly from raw serum concentration-time data with Tmax defined as the time of the first occurrence of Cmax. The apparent terminal elimination rate constant (kel) was estimated using least-squares regression analysis of the serum concentration-time data obtained during the terminal log-linear phase. The apparent terminal half-life (T½) was calculated as In 2/kel. Areas under the serum concentration-time curve from time 0 to the last time (Tlast) with a quantifiable concentration [AUC(Tlast)] were estimated using linear/log trapezoidal approximation. Areas under the serum concentration-time curve from time Tlast to infinity [AUC(Tlast-inf)] were estimated as Cpest/kel, where Cpest represented the estimated concentration at time Tlast based on the aforementioned regression analysis. Areas under the serum concentration-time curve from time 0 to infinity [AUC(inf)] were estimated as the sum of AUC(Tlast) and AUC(Tlast-inf). […] Individual serum concentrations of grapiprant were summarized in tabular and graphical form. Concentrations that were determined to be below the lower limit of quantification were assumed to be equal to zero for the pharmacokinetic analyses and mean concentration-time plots.
The 600 mg dose was studied in 2 separate cohorts. The second of these two cohorts was conducted to confirm safety assessments at this dose strength. For the pharmacokinetic analysis, pharmacokinetic parameters of both cohorts were pooled together and analyzed as a single group.

[2] = single 1 mg dose as OPC, fasted, healthy adults, mean
[3] = single 3 mg dose as OPC, fasted, healthy adults, mean
[4] = single 10 mg dose as OPC, fasted, healthy adults, mean
[5] = single 30 mg dose as OPC, fasted, healthy adults, mean
[6] = single 100 mg dose as OPC, fasted, healthy adults, mean
[7] = single 300 mg dose as OPC, fasted, healthy adults, mean
[8] = single 600 mg dose as OPC, fasted, healthy adults, mean
[9] = single 1000 mg dose as OPC, fasted, healthy adults, mean
[10] = single 1500 mg dose as OPC, fasted, healthy adults, mean
[11] = single 2000 mg dose as OPC, fasted, healthy adults, mean

In the case of `CCc1nc2c(C)nc(C)cc2n1-c1ccc(CCNC(=O)NS(=O)(=O)c2ccc(C)cc2)cc1` [Grapiprant, N-((4-(2-ethyl-4,6-dimethyl-1H-imidazo[4,5-c]pyridin-1-yl)phenethyl)carbamoyl)-4-methylbenzenesulfonamide], the “change from baseline in osteocalcin (least squares mean)” value (osteocalcin; 50 mg BID, Day 7, healthy subjects, placebo 39.30%, p=0.023) is reported as 1.40%, the “LS Mean change in blood osteocalcin” value (osteocalcin; 50 mg, 14-day oral administration, healthy adults, post-dosing day 7) is reported as “about −37.90%” and the “LS Mean change in blood osteocalcin” value (osteocalcin; 50 mg, 14-day oral administration, healthy adults, post-dosing day 14) is reported as “about −13.58%”. The “LS Mean change in blood osteocalcin” value (osteocalcin; 150 mg, 14-day oral administration, healthy adults, post-dosing day 7) was “about −31.02%”, the “LS Mean change in blood osteocalcin” value (osteocalcin; 150 mg, 14-day oral administration, healthy adults, post-dosing day 14) was “about −10.29%” and the “LS Mean change in blood osteocalcin” value (osteocalcin; 250 mg, 17-day oral administration, elderly with minor renal impairment, post-dosing day 10) was “about −5.91%”. For the same compound, the “LS Mean change in blood osteocalcin” value (osteocalcin; 250 mg, 17-day oral administration, elderly with minor renal impairment, post-dosing day 17) was “about −3.96%”, the “change from baseline in osteocalcin (least squares mean)” value (osteocalcin; 300 mg BID, Day 14, healthy subjects, placebo 47.84%, p=0.045) was 14.37% and the “LS Mean change in blood osteocalcin” value (osteocalcin; 300 mg, 14-day oral administration, healthy adults, post-dosing day 7) was “about −10.30%”. For the same compound, the “LS Mean change in blood osteocalcin” value (osteocalcin; 300 mg, 14-day oral administration, healthy adults, post-dosing day 14) was “about −33.47%”, the “bone marker difference between treatment groups” value (osteocalcin; elderly subjects, 250 mg BID versus placebo) was “no statistically significant differences” and the “increase of mean serum exposure parameters with dose” value ([1]; between the 100 mg and 600 mg dose levels, OPC, fasted) was “greater than dose-proportional increases”. For the same compound, the AUC(0-t) [1, 2] was 59.1 ng·h/mL, the Cmax [1, 2] was 6.59 ng/mL and the AUC(0-inf) [1, 3] was 260 ng·h/mL. It also gave an AUC(0-t) [1, 3] of 246 ng·h/mL, a Cmax [1, 3] of 23.1 ng/mL and an AUC(0-inf) [1, 4] of 917 ng·h/mL. The AUC(0-t) [1, 4] was 901 ng·h/mL, the Cmax [1, 4] was 110 ng/mL and the AUC(0-inf) [1, 5] was 2150 ng·h/mL. The AUC(0-t) [1, 5] was 2120 ng·h/mL, the Cmax [1, 5] was 262 ng/mL and the AUC(0-inf) [1, 6] was 7220 ng·h/mL. The AUC(0-t) [1, 6] was 7170 ng·h/mL, the Cmax [1, 6] was 1440 ng/mL and the AUC(0-inf) [1, 7] was 31300 ng·h/mL. The AUC(0-t) [1, 7] was 31200 ng·h/mL, the Cmax [1, 7] was 12000 ng/mL and the AUC(0-inf) [1, 8] was 92500 ng·h/mL. The AUC(0-t) [1, 8] was 92200 ng·h/mL, the Cmax [1, 8] was 45000 ng/mL and the AUC(0-inf) [1, 9] was 175000 ng·h/mL. For the same compound, the AUC(0-t) [1, 9] was 174000 ng·h/mL, the Cmax [1, 9] was 64300 ng/mL and the AUC(0-inf) [1, 10] was 242000 ng·h/mL. For the same compound, the AUC(0-t) [1, 10] was 242000 ng·h/mL, the Cmax [1, 10] was 83800 ng/mL and the AUC(0-inf) [1, 11] was 479000 ng·h/mL. It also gave an AUC(0-t) [1, 11] of 478000 ng·h/mL, a Cmax [1, 11] of 134000 ng/mL and a Tmax ([1]; 1 mg, single 1 mg dose as OPC, fasted, healthy adults, median, read-out: Tmax) of 2.5 h. It also gave a half-life ([1]; 3 mg, single 3 mg dose as OPC, fasted, healthy adults, mean, read-out: T½ (converted)) of 5.34 h, a Tmax ([1]; 3 mg, single 3 mg dose as OPC, fasted, healthy adults, median, read-out: Tmax) of 3 h and a half-life ([1]; 10 mg, single 10 mg dose as OPC, fasted, healthy adults, mean, read-out: T½ (converted)) of 5.1 h. The Tmax ([1]; 10 mg, single 10 mg dose as OPC, fasted, healthy adults, median, read-out: Tmax) was 2 h, the half-life ([1]; 30 mg, cohorts with clear bi-exponential decline (30 mg and above), read-out: mean terminal phase T1/2) was 6.14 to 9.41 h and the half-life ([1]; 30 mg, single 30 mg dose as OPC, fasted, healthy adults, mean, read-out: T½ (converted)) was 6.14 h. It also gave a Tmax ([1]; 30 mg, single 30 mg dose as OPC, fasted, healthy adults, median, read-out: Tmax) of 1 h, a Tmax ([1]; 100 mg, doses of 100 mg and above, OPC, fasted, read-out: individual Tmax values) of 0.5 to 1 h and a half-life ([1]; 100 mg, single 100 mg dose as OPC, fasted, healthy adults, mean, read-out: T½ (converted)) of 6.91 h. It also gave a Tmax ([1]; 100 mg, single 100 mg dose as OPC, fasted, healthy adults, median, read-out: Tmax) of 0.75 h, a half-life ([1]; 300 mg, single 300 mg dose as OPC, fasted, healthy adults, mean, read-out: T½ (converted)) of 7.98 h and a Tmax ([1]; 300 mg, single 300 mg dose as OPC, fasted, healthy adults, median, read-out: Tmax) of 0.75 h. For the same compound, the half-life ([1]; 600 mg, single 600 mg dose as OPC, fasted, healthy adults, mean, read-out: T½ (converted)) was 8.03 h, the Tmax ([1]; 600 mg, single 600 mg dose as OPC, fasted, healthy adults, median, read-out: Tmax) was 0.5 h and the half-life ([1]; 1000 mg, single 1000 mg dose as OPC, fasted, healthy adults, mean, read-out: T½ (converted)) was 9.41 h. It also gave a Tmax ([1]; 1000 mg, single 1000 mg dose as OPC, fasted, healthy adults, median, read-out: Tmax) of 1 h, a half-life ([1]; 1500 mg, single 1500 mg dose as OPC, fasted, healthy adults, mean, read-out: T½ (converted)) of 8.13 h and a Tmax ([1]; 1500 mg, single 1500 mg dose as OPC, fasted, healthy adults, median, read-out: Tmax) of 0.75 h. It also gave a half-life ([1]; 2000 mg, single 2000 mg dose as OPC, fasted, healthy adults, mean, read-out: T½ (converted)) of 8.25 h, a Tmax ([1]; 2000 mg, single 2000 mg dose as OPC, fasted, healthy adults, median, read-out: Tmax) of 1 h and a Tmax ([1]; across the dose groups, 1 mg to 2000 mg OPC, fasted, read-out: median Tmax estimates) of 0.5 to 3 h. The half-life ([1]; over the range of doses studied, OPC, fasted, read-out: mean terminal phase T1/2) was 5.1 to 9.41 h and the serum concentration-time profile ([1]; single oral dose of OPC formulation, about 1 mg to 2000 mg) was “rapid absorption followed by a bi-exponential decline in serum concentration”.
